What was measured:
MDA-MB-436 = assay: Cell growth inhibition, MDA-MB-436 breast cancer cells (WST-8); format: cell-based; details: Homo sapiens, MDA-MB-436, 96 h; 4 days; read-out: IC50 (nM) MDA-MB-436 Cell Line (WST assay)
Summary of the method: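 IC50 was computed from WST-8-based cell counting in MDA-MB-436 cells, with absorbance read at 450 nm.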

recombinant BRD4 BD2 = molecular target: T1, recombinant BRD4 BD2 (Homo sapiens, UniProt O60885); assay: Competitive fluorescence-polarization (FP) binding assay, BRD4 BD2; details: competitive FP assay; protein 6 nM, probe […]; read-out: IC50 (nM) BRD4 BD2; also: probe 1.5 nM
T1 construct: for recombinant BRD4 BD1 and BRD4 BD2 proteins
Summary of the method: (§1)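 FP competition with FAM-labelled probe (ZBA248 or BRD-1F) against preincubated protein/probe complex; BD1 at 10 nM and BD2 at 6 nM final, in 100 mM potassium phosphate pH 6.5, 0.01% Triton X-100. 30 min, room temperature. IC50 by nonlinear regression; Ki also derived, using probe Kd from protein saturation.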

MOLM-13 = assay: Cell growth inhibition, MOLM-13 leukemia cells (CellTiter-Glo); format: cell-based; details: Homo sapiens, MOLM-13, 96 h; 4 days; read-out: IC50 (nM) MOLM-13 Cell Line (CellTiter-Glo assay)
Summary of the method: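 MOLM-13 leukemia cells treated with compounds; viability read by CellTiter-Glo luminescence after 10-20 min reagent incubation at room temperature. IC50 derived from luminescent signal.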

recombinant BRD4 BD1 = molecular target: T2, recombinant BRD4 BD1 (Homo sapiens, UniProt O60885); assay: Competitive fluorescence-polarization (FP) binding assay, BRD4 BD1; details: competitive FP assay; protein 10 nM, probe […]; read-out: IC50 (nM) BRD4 BD1; also: probe 1.5 nM
T2 construct: for recombinant BRD4 BD1 and BRD4 BD2 proteins
Summary of the method: as §1

[1] = system: VCaP prostate cancer cells; assay: Cell growth inhibition, VCaP prostate cancer cells (Cell-Titer GLO); format: cell-based; details: for IC50: Homo sapiens, VCaP, 96 h incubation, read-out: IC50 (nM) VCaP Cell Line (CellTiter-Glo assay)
Procedure: For prostate cancer cell lines, VCaP prostate cancer cells were grown in DMEM with Glutamax (Gibco) supplemented with 10% FBS (Invitrogen) in 5% CO2 cell culture incubator. All cell lines were tested and found to be free of mycoplasma contamination. Cells were seeded in 96-well plates at 2,000-10,000 cells per well (optimum density for growth) in a total volume of […] media containing 10% FBS. Serially diluted compounds in […] media were added to the cells 12 h later. […] The values were normalized and IC50 was calculated using GraphPad Prism software.
Cells were seeded in 96-well plates at 2000-10,000 cells/well (optimum density for growth) in a total volume of 100 μl media containing 10% FBS. Serially diluted compounds in 100 μl media were added to the cells 12 h later. Following 96 h. incubation, cell viability was assessed by Cell-Titer GLO (Promega). The values were normalized and IC50 was calculated using GraphPad Prism software. […] After 12 days cells were fixed with methanol, stained with crystal violet and photographed. For colorimetric assays, the stained wells were treated with 500 μl 10% acetic acid and the absorbance was measured at 560 nm using a spectrophotometer.

BRD2/3/4 = assay: ChIP-seq of BRD2/3/4 in VCaP cells; format: cell-based; details: 500 nM, 12 h
Procedure: (§2) The ChIP assays for BRD2, BRD3, BRD4, AR, RNA PolII, ERG and H3K27ac were performed using HighCell ChIP kit (Diagenode) according to manufacturer's protocol. […] Next, cells were cross-linked for 10 min. with 1% formaldehyde. […] Chromatin equivalent to 5×10^6 cells were used for ChIP using different antibodies. ChIP DNA was isolated (IPure Kit, Diagenode) from samples by incubation with the antibody at 4° C. overnight followed by wash and reversal of cross-linking. The ChIP-seq sample preparation for sequencing was performed according to the manufacturer's instructions (Illumina). […] A single A-base was added to fragment ends by Klenow fragment (3′ to 5′ exo minus; NEB) followed by ligation of Illumina adaptors (Quick ligase, NEB). The adaptor-modified DNA fragments were enriched by PCR using the Illumina Barcode primers and Phusion DNA polymerase (NEB). PCR products were size selected using 3% NuSieve agarose gels (Lonza) followed by gel extraction using QIAEX II reagents (QIAGEN). Libraries were quantified with the Bioanalyzer 2100 (Agilent) and sequenced on the Illumina HiSeq 2000 Sequencer (100 nucleotide read length).

VCaP xenograft model = assay: Spontaneous metastasis in the VCaP xenograft model (human Alu qPCR); format: in vivo, mice; details: femur, liver and spleen; JQ1 50 mg/kg, MDV3100 10 mg/kg
Procedure: (§3) Four week-old male SCID C.B17 mice were procured from a breeding colony at University of Michigan. All procedures involving mice were approved by the University Committee on Use and Care of Animals (UCUCA) at the University of Michigan and conform to all regulatory standards. Mice were anesthetized using 2% Isoflurane (inhalation) and 2×10^6 VCaP prostate cancer cells suspended in 100 μl of PBS with 50% Matrigel (BD Biosciences) were implanted subcutaneously into the dorsal flank on both sides of the mice. […] Growth in tumor volume was recorded using digital calipers and tumor volumes were estimated using the formula (π/6) (L×W^2), where L=length of tumor and W=width. Loss of body weight during the course of the study was also monitored. At the end of the studies mice were sacrificed and tumors extracted and weighed. Additionally, femur bone marrow, liver and spleen were harvested to examine spontaneous metastasis by detecting human-Alu sequence. […] All procedures involving mice were approved by the University Committee on Use and Care of Animals (UCUCA) at the University of Michigan and conform to all regulatory standards.

VCaP tumor xenograft = system: VCaP tumor xenograft
Procedure: as §3

AR = assay: ChIP-seq of AR in DHT-stimulated VCaP cells; format: cell-based; details: DHT 10 nM plus JQ1 500 nM, MDV3100 10 μM or Bicalutamide 25 μM, FIG. 17
Procedure: as §2
For enrichment plots shown in FIGS. 17, 19 and 20, identified peaks for each sample are centered by peak summit and average coverage per million was counted within 1500 bp relative to the peak center.

| SMILES | IC50 (MDA-MB-436) [nM] | IC50 (recombinant BRD4 BD2) [nM] | IC50 (MOLM-13) [nM] | IC50 (recombinant BRD4 BD1) [nM] | IC50 [1] [nM] | recruitment of BRD2/3/4 to the chromatin (BRD2/3/4) | spontaneous metastasis (VCaP xenograft model) | tumor volume/weight (VCaP tumor xenograft; VCaP tumor-bearing mice, JQ1 50 mg/kg, MDV3100 10 mg/kg, 5 days/week, FIGS. 23-25) | tolerability (VCaP tumor xenograft; mouse, in vivo) | recruitment of AR to target loci (AR) | VCaP cell viability in vitro ([1]; 8 days, FIG. 22) |
| --- | --- | --- | --- | --- | --- | --- | --- | --- | --- | --- | --- |
| COc1cc2c(cc1-c1c(C)noc1C)[nH]c1nc(C)nc(Nc3c(C)c(C)nn3C(C)(C)C)c12 [Cpd. No. 185, N-(1-(tert-butyl)-3,4-dimethyl-1H-pyrazol-5-yl)-7-(3,5-dimethylisoxazol-4-yl)-6-methoxy-2-methyl-9H-pyrimido[4,5-b]indol-4-amine] | 71 | 12.3 | 17 | 4.9 | 64.7 | – | – | – | – | – | – |
| CCNC(=O)C[C@@H]1N=C(c2ccc(Cl)cc2)c2cc(OC)ccc2-n2c(C)nnc21 [I-BET762] | – | – | – | – | – | reduction in the recruitment | – | – | – | – | – |
| CNC(=O)c1ccc(N2C(=S)N(c3ccc(C#N)c(C(F)(F)F)c3)C(=O)C2(C)C)cc1F [MDV3100, enzalutamide] | – | – | – | – | – | – | evidence of metastases in femur and liver | less pronounced effect | well tolerated | markedly attenuated | Marginal cell death |

The next lines start with results.

| IC50 (MDA-MB-436) [nM] | IC50 (recombinant BRD4 BD2) [nM] | IC50 (MOLM-13) [nM] | IC50 (recombinant BRD4 BD1) [nM] | IC50 [1] [nM] | SMILES | recruitment of BRD2/3/4 to the chromatin (BRD2/3/4) | spontaneous metastasis (VCaP xenograft model) | tumor volume/weight (VCaP tumor xenograft; VCaP tumor-bearing mice, JQ1 50 mg/kg, MDV3100 10 mg/kg, 5 days/week, FIGS. 23-25) | tolerability (VCaP tumor xenograft; mouse, in vivo) | recruitment of AR to target loci (AR) | VCaP cell viability in vitro ([1]; 8 days, FIG. 22) |
| --- | --- | --- | --- | --- | --- | --- | --- | --- | --- | --- | --- |
| 11.3 | 1.2 | 4.3 | 4.5 | 23.4 | COc1cc2c(cc1-c1c(C)noc1C)[nH]c1nc(C)nc(Nc3c4c(nn3C(C)C)CCC4)c12 [Cpd. No. 137, 7-(3,5-Dimethylisoxazol-4-yl)-N-(2-isopropyl-2,4,5,6-tetrahydrocyclopenta[c]pyrazol-3-yl)-6-methoxy-2-methyl-9H-pyrimido[4,5-b]indol-4-amine] | – | – | – | – | – | – |
| 13.6 | 1.1 | 1.6 | 4.6 | 19.3 | CCn1nc2c(c1Nc1nc(C)nc3[nH]c4cc(-c5c(C)noc5C)c(OC)cc4c13)CCC2 [Cpd. No. 141, 7-(3,5-Dimethylisoxazol-4-yl)-N-(2-ethyl-2,4,5,6-tetrahydrocyclopenta[c]pyrazol-3-yl)-6-methoxy-2-methyl-9H-pyrimido[4,5-b]indol-4-amine] | – | – | – | – | – | – |
| 14.5 | 0.7 | 3 | 2.1 | 53.8 | CCn1nc(C2CC2)cc1Nc1nc(C)nc2[nH]c3cc(-c4c(C)noc4C)c(OC)cc3c12 [Cpd. No. 144, N-(3-Cyclopropyl-1-ethyl-1H-pyrazol-5-yl)-7-(3,5-dimethylisoxazol-4-yl)-6-methoxy-2-methyl-9H-pyrimido[4,5-b]indol-4-amine] | – | – | – | – | – | – |

Reference: US9580430B2, “9H-pyrimido[4,5-B]indoles and related analogs as BET bromodomain inhibitors” (THE REGENTS OF THE UNIVERSITY OF MICHIGAN, priority 2014, dated 2017)
